In paper PMC10269775, “Penicillin-Binding Protein Occupancy Dataset for 18 β-Lactams and 4 β-Lactamase Inhibitors in Neisseria gonorrhoeae” (Microbiology Spectrum, 2023):
Values after ≈ are worked out from the molar mass of the structure shown.

These molecules were tested against T1, PBP1 (Neisseria gonorrhoeae, UniProt O05131) (assay: PBP-binding assay (Bocillin FL) in isolated membrane preparations). Conditions: strain ATCC 19424; membrane preparation, 30 min drug then Bocillin FL; read-out: IC50 PBP1 (converted).
T1 construct: endogenous in cells; host or cells: N. gonorrhoeae ATCC 19424, isolated membrane preparation
From the text: (§1) Bacterial membranes were collected by ultracentrifugation.

`CO[C@@]1(NC(=O)Cc2cccs2)C(=O)N2C(C(=O)O)=C(COC(N)=O)CS[C@@H]21` [FOX, cefoxitin] and `C[C@@H](O)[C@H]1C(=O)N2C(C(=O)O)=C(SCCN=CN)C[C@H]12` [IPM, imipenem] are within 1.5-fold of each other in IC50: 1360 nM for the first, 1340 nM for the second.

Going from `CC1(C)S[C@@H]2[C@H](/N=C/N3CCCCCC3)C(=O)N2[C@H]1C(=O)O` [MEC, amdinocillin] to `C[C@@H](O)[C@H]1C(=O)N2C(C(=O)O)=C(S[C@@H]3CN[C@H](C(=O)N(C)C)C3)[C@H](C)[C@H]12` [MEM, meropenem], the IC50 falls from 313000 nM to 626 nM (500-fold).

Same assay, conditions: strain ATCC 19424; read-out: IC50 PBP1 (Table S1) (converted)

Work on `CC1(C)S[C@@H]2[C@H](/N=C/N3CCCCCC3)C(=O)N2[C@H]1C(=O)O` [MEC, amdinocillin] yielded an IC50 of 314000 nM.

Each molecule was assayed against T2, PBP2 (Neisseria gonorrhoeae, UniProt P08149, H541N) in the same assay as above. Conditions: IC50 PBP2 (Table S1), strain ATCC 19424.
T2 construct: endogenous in cells; host or cells: N. gonorrhoeae ATCC 19424, isolated membrane preparation
Parameters: species or system Neisseria gonorrhoeae ATCC 19424

For `C[C@@H](O)[C@H]1C(=O)N2C(C(=O)O)=C(S[C@@H]3CN[C@H](C(=O)N(C)C)C3)[C@H](C)[C@H]12` [MEM, meropenem], the IC50 was 104 nM.

Same assay, conditions: IC50 PBP2, strain ATCC 19424; membrane preparation, 30 min drug then Bocillin FL

First: CO[C@@]1(NC(=O)Cc2cccs2)C(=O)N2C(C(=O)O)=C(COC(N)=O)CS[C@@H]21 [FOX, cefoxitin]
Second: C[C@@H](O)[C@H]1C(=O)N2C(C(=O)O)=C(SCCN=CN)C[C@H]12 [IPM, imipenem]
The IC50 of the first is 3.9-fold higher: 912 nM for the first, 234 nM for the second. The second is the more potent here.

Work on `CC1(C)S[C@@H]2[C@H](/N=C/N3CCCCCC3)C(=O)N2[C@H]1C(=O)O` [MEC, amdinocillin] yielded an IC50 of 4090 nM.

What follows are molecules tested against T3, PBP1 (Neisseria gonorrhoeae, UniProt O05131, A375T/F666S) in the same assay as above. Conditions: IC50 PBP1, strain ATCC 49226; membrane preparation, 30 min drug then Bocillin FL.
T3 construct: endogenous in cells; host or cells: N. gonorrhoeae ATCC 49226, isolated membrane preparation
Parameters: species or system Neisseria gonorrhoeae ATCC 49226
From the text: as §1

`CO[C@@]1(NC(=O)Cc2cccs2)C(=O)N2C(C(=O)O)=C(COC(N)=O)CS[C@@H]21` [FOX, cefoxitin] and `C[C@@H](O)[C@H]1C(=O)N2C(C(=O)O)=C(SCCN=CN)C[C@H]12` [IPM, imipenem] are within 1.5-fold of each other in IC50: 2130 nM for the first, 2670 nM for the second.

`C[C@@H](O)[C@H]1C(=O)N2C(C(=O)O)=C(S[C@@H]3CN[C@H](C(=O)N(C)C)C3)[C@H](C)[C@H]12` [MEM, meropenem] showed an IC50 of 1170 nM.

Each molecule was assayed against T4, PBP2 (Neisseria gonorrhoeae, UniProt P08149, A510V/A516G/A574V/F504L/H541N/I556V/I566V/K555Q/P552V) (assay: biochemical). Conditions: IC50 PBP2, strain ATCC 49226; membrane preparation, 30 min drug then Bocillin FL.
T4 construct: endogenous in cells; host or cells: N. gonorrhoeae ATCC 49226, isolated membrane preparation
Assay type: binding, Neisseria gonorrhoeae ATCC 49226

Compared with `CO[C@@]1(NC(=O)Cc2cccs2)C(=O)N2C(C(=O)O)=C(COC(N)=O)CS[C@@H]21` [FOX, cefoxitin], `C[C@@H](O)[C@H]1C(=O)N2C(C(=O)O)=C(SCCN=CN)C[C@H]12` [IPM, imipenem] is lower in IC50: over 4680 nM for the first, 568 nM for the second. The second is the more potent here.

Each molecule was assayed on N. gonorrhoeae ATCC 19424 (assay: MIC, CLSI broth microdilution). Conditions: Neisseria gonorrhoeae, ATCC19424; strain ATCC 19424; read-out: MIC.
Assay type: cell-based

Going from `CO[C@@]1(NC(=O)Cc2cccs2)C(=O)N2C(C(=O)O)=C(COC(N)=O)CS[C@@H]21` [FOX, cefoxitin] to `C[C@@H](O)[C@H]1C(=O)N2C(C(=O)O)=C(SCCN=CN)C[C@H]12` [IPM, imipenem], the MIC falls from 0.25 µg/mL (≈ 0.585 µM) to 0.032 µg/mL (≈ 0.107 µM) (7.8-fold).

Compared with `CC1(C)S[C@@H]2[C@H](/N=C/N3CCCCCC3)C(=O)N2[C@H]1C(=O)O` [MEC, amdinocillin], `C[C@@H](O)[C@H]1C(=O)N2C(C(=O)O)=C(S[C@@H]3CN[C@H](C(=O)N(C)C)C3)[C@H](C)[C@H]12` [MEM, meropenem] is 120-fold lower in MIC: 1 µg/mL (≈ 3.07 µM) for the first, 0.008 µg/mL (≈ 0.0209 µM) for the second.

Same assay, conditions: Neisseria gonorrhoeae, ATCC19424; strain ATCC 19424; read-out: MIC (Table S1)

First: CO[C@@]1(NC(=O)Cc2cccs2)C(=O)N2C(C(=O)O)=C(COC(N)=O)CS[C@@H]21 [FOX, cefoxitin]
Second: C[C@@H](O)[C@H]1C(=O)N2C(C(=O)O)=C(SCCN=CN)C[C@H]12 [IPM, imipenem]
The MIC of the first is 7.8-fold higher: 0.25 µg/mL (≈ 0.585 µM) for the first, 0.032 µg/mL (≈ 0.107 µM) for the second.

Compared with `CC1(C)S[C@@H]2[C@H](/N=C/N3CCCCCC3)C(=O)N2[C@H]1C(=O)O` [MEC, amdinocillin], `C[C@@H](O)[C@H]1C(=O)N2C(C(=O)O)=C(S[C@@H]3CN[C@H](C(=O)N(C)C)C3)[C@H](C)[C@H]12` [MEM, meropenem] is 120-fold lower in MIC: 1 µg/mL (≈ 3.07 µM) for the first, 0.008 µg/mL (≈ 0.0209 µM) for the second.

The molecules below were run on N. gonorrhoeae ATCC 49226 (assay: MIC, CLSI broth microdilution). Conditions: Neisseria gonorrhoeae, ATCC49226; strain ATCC 49226; read-out: MIC.
Assay type: cell-based, Neisseria gonorrhoeae

First: CO[C@@]1(NC(=O)Cc2cccs2)C(=O)N2C(C(=O)O)=C(COC(N)=O)CS[C@@H]21 [FOX, cefoxitin]
Second: C[C@@H](O)[C@H]1C(=O)N2C(C(=O)O)=C(SCCN=CN)C[C@H]12 [IPM, imipenem]
The MIC of the first is 7.8-fold higher: 0.5 µg/mL (≈ 1.17 µM) for the first, 0.064 µg/mL (≈ 0.214 µM) for the second.

Going from `CC1(C)S[C@@H]2[C@H](/N=C/N3CCCCCC3)C(=O)N2[C@H]1C(=O)O` [MEC, amdinocillin] to `C[C@@H](O)[C@H]1C(=O)N2C(C(=O)O)=C(S[C@@H]3CN[C@H](C(=O)N(C)C)C3)[C@H](C)[C@H]12` [MEM, meropenem], the MIC falls from 8 µg/mL (≈ 24.6 µM) to 0.016 µg/mL (≈ 0.0417 µM) (500-fold).

Same assay, conditions: Neisseria gonorrhoeae, ATCC49226; strain ATCC 49226; read-out: MIC (Table S1)

First: CO[C@@]1(NC(=O)Cc2cccs2)C(=O)N2C(C(=O)O)=C(COC(N)=O)CS[C@@H]21 [FOX, cefoxitin]
Second: C[C@@H](O)[C@H]1C(=O)N2C(C(=O)O)=C(SCCN=CN)C[C@H]12 [IPM, imipenem]
The MIC of the first is 7.8-fold higher: 0.5 µg/mL (≈ 1.17 µM) for the first, 0.064 µg/mL (≈ 0.214 µM) for the second.

First: CC1(C)S[C@@H]2[C@H](/N=C/N3CCCCCC3)C(=O)N2[C@H]1C(=O)O [MEC, amdinocillin]
Second: C[C@@H](O)[C@H]1C(=O)N2C(C(=O)O)=C(S[C@@H]3CN[C@H](C(=O)N(C)C)C3)[C@H](C)[C@H]12 [MEM, meropenem]
The MIC of the first is 500-fold higher: 8 µg/mL (≈ 24.6 µM) for the first, 0.016 µg/mL (≈ 0.0417 µM) for the second.

These molecules were tested against PBP1, PBP2 and PBP3 (Neisseria gonorrhoeae, UniProt P08149, H541N) (assay: not given). Conditions: read-out: min. IC50 (minimum observed IC50 value); strain ATCC 19424.
Assay type: binding, Neisseria gonorrhoeae ATCC 19424

`CC1(C)S[C@@H]2[C@H](/N=C/N3CCCCCC3)C(=O)N2[C@H]1C(=O)O` [MEC, amdinocillin] showed an IC50 of 4090 nM.

These molecules were tested on N. gonorrhoeae ATCC 19424 and ATCC 49226 (assay: MIC, summary over both strains). Conditions: Neisseria gonorrhoeae; across the two ATCC strains.
Assay type: cell-based, Neisseria gonorrhoeae

Molecule `C[C@@H](O)[C@H]1C(=O)N2C(C(=O)O)=C(SCCN=CN)C[C@H]12` [IPM, imipenem] has an MIC of 0.032 to 0.064 µg/mL (≈ 0.107 to 0.214 µM).

Same assay, conditions: compared with imipenem

For `C[C@@H](O)[C@H]1C(=O)N2C(C(=O)O)=C(S[C@@H]3CN[C@H](C(=O)N(C)C)C3)[C@H](C)[C@H]12` [MEM, meropenem], the times more active was 8 times.
